Reference: ChEMBL document CHEMBL5050844 (2019)

How the values were obtained:
[1] = Induction of anti-CD3/CD28 antibodies-stimulated human CD4+ T cell activation at 10 uM assessed fold increase in CD69 expression measured by flow cytometry analysis; assay type: functional, T cell line
[2] = Induction of anti-CD3 antibodies-stimulated human exhausted T cell activation assessed fold increase in IFN-gamma secretion measured by ELISA assay; assay type: functional, T cell line
[3] = Induction of anti-CD3 antibodies-stimulated human T cell activation at 1.11 uM assessed fold increase in TNF-alpha secretion measured by ELISA assay; assay type: functional, T cell line
[4] = Induction of anti-CD3 antibodies-stimulated human CD8+ T cell activation in immunocompetent mouse assessed fold increase in CD25 expression at 90 mg/kg, po administered twice a day; assay type: functional
[5] = Induction of anti-CD3/CD28 antibodies-stimulated human T cell activation at 10 uM assessed fold increase in GM-CSF secretion measured by ELISA assay; assay type: functional, T cell line
[6] = Induction of anti-CD3 antibodies-stimulated human CD4+ T cell activation in immunocompetent mouse assessed fold increase in CD25 expression at 135 mg/kg, po administered twice a day; assay type: functional
[7] = Induction of anti-CD3 antibodies-stimulated human T cell activation at 1.11 uM assessed fold increase in IFN-gamma secretion measured by ELISA assay; assay type: functional, T cell line
[8] = biological target: T1, E3 ubiquitin-protein ligase CBL-B (Homo sapiens, UniProt Q13191); assay: Inhibition of N-terminal Avi-tagged human CBL-B (36 to 427 residues) incubated with 60 nM Src kinase for 1.5 hrs followed by incubation with fluorescently labeled UbcH5B-Ub for 1 hr and measured by TR-FRET assay; assay type: single protein
[9] = Induction of anti-CD3/CD28 antibodies-stimulated human anergic T cell activation at 10 uM assessed fold increase in IFN-gamma secretion measured by ELISA assay; assay type: functional, T cell line
[10] = Induction of anti-CD3 antibodies-stimulated human CD8+ T cell activation in immunocompetent mouse assessed fold increase in CD25 expression at 180 mg/kg, po administered twice a day; assay type: functional
[11] = Induction of anti-CD3 antibodies-stimulated human CD8+ T cell activation in immunocompetent mouse assessed fold increase in CD25 expression at 90 mg/kg, ip administered thrice a day; assay type: functional
[12] = Induction of allogenic human T cell activation at 10 uM assessed fold increase in cell proliferation; assay type: functional, T cell line
[13] = Induction of anti-CD3 antibodies-stimulated human CD4+ T cell activation in immunocompetent mouse assessed fold increase in CD25 expression at 90 mg/kg, po administered twice a day; assay type: functional
[14] = Induction of anti-CD3 antibodies-stimulated human CD4+ T cell activation in immunocompetent mouse assessed fold increase in CD25 expression at 180 mg/kg, po administered twice a day; assay type: functional
[15] = Induction of anti-CD3/CD28 antibodies-stimulated human T cell activation at 10 uM assessed fold increase in IFN-gamma secretion measured by ELISA assay; assay type: functional, T cell line
[16] = Induction of anti-CD3/CD28 antibodies-stimulated human T cell activation at 0.3 uM assessed fold increase in IL-2 secretion measured by ELISA assay; assay type: functional, T cell line
[17] = Induction of anti-CD3 antibodies-stimulated human T cell activation at 10 uM assessed fold increase in TNF-alpha secretion measured by ELISA assay; assay type: functional, T cell line
[18] = Induction of anti-CD3 antibodies-stimulated human T cell activation at 8 uM assessed fold increase in CD25 expression measured by ELISA assay; assay type: functional, T cell line
[19] = Induction of anti-CD3/CD28 antibodies-stimulated human CD4+ T cell activation at 1.11 uM assessed fold increase in CD69 expression measured by flow cytometry analysis; assay type: functional, T cell line
[20] = Induction of activation of human CD56+ CD3- NK cells co-cultured with human K562 cells in 1:1 ratio and assessed as increase in TNF-alpha secretion at 10 uM measured by ELISA assay; assay type: functional, Natural killer cell
[21] = Induction of allogenic human T cell activation at 3 uM assessed fold increase in cell proliferation; assay type: functional, T cell line
[22] = Induction of anti-CD3 antibodies-stimulated human CD8+ T cell activation in immunocompetent mouse assessed fold increase in CD25 expression at 135 mg/kg, po administered twice a day; assay type: functional
[23] = Induction of anti-CD3/CD28 antibodies-stimulated human T cell activation at 1 uM assessed fold increase in CD25 expression measured by ELISA assay; assay type: functional, T cell line
[24] = biological target: T1, E3 ubiquitin-protein ligase CBL-B; assay: Binding affinity towards N-terminal biotinylated Avi-tagged human CBL-B (36 to 427 residues) measured by surface plasmon resonance assay

T1 sequence (Q13191 whole entry, the tested form may be a part): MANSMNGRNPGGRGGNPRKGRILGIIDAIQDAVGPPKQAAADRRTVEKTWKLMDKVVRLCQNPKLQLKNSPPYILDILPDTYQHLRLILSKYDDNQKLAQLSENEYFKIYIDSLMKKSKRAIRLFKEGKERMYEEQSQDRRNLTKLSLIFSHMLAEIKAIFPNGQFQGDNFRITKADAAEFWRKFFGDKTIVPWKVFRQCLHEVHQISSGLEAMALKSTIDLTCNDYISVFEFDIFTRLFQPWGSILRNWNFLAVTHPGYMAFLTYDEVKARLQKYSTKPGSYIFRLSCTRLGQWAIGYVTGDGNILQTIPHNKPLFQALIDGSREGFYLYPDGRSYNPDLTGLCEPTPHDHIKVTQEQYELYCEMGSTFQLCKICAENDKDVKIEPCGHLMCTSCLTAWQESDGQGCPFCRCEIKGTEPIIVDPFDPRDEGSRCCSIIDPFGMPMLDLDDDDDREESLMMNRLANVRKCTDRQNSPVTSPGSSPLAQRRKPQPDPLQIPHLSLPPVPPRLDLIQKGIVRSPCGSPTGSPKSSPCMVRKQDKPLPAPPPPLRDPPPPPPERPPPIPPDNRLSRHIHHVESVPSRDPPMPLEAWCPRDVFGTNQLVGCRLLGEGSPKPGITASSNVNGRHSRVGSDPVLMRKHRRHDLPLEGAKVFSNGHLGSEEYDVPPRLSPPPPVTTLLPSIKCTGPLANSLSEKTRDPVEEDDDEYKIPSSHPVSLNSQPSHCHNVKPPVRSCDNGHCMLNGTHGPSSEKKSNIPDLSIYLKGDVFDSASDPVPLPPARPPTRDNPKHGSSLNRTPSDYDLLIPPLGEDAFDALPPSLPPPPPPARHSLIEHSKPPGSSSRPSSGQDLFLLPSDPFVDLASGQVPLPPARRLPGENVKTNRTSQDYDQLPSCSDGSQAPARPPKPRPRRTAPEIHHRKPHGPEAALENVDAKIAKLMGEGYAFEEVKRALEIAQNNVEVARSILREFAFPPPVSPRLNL

IC50 [8] | SMILES | fold change (FC) [1] | fold change (FC) [2] | fold change (FC) [3] | fold change (FC) [4] | fold change (FC) [5] | fold change (FC) [6] | fold change (FC) [7] | fold change (FC) [9] | fold change (FC) [10] | fold change (FC) [11] | fold change (FC) [12] | fold change (FC) [15] | fold change (FC) [16] | fold change (FC) [17] | fold change (FC) [18] | fold change (FC) [19] | fold change (FC) [20] | fold change (FC) [21] | fold change (FC) [23] | further results
< 100 nM | C[C@H](c1cc2c(c(C(F)(F)F)c1)CN(c1cccc(C3(Cc4nncn4C)COC3)c1)C2=O)N1CC[C@H](F)C1 | >1.601 | >1.61 | 1.51 | 1 | >4 | 1 | 2.01 | >4.01 | 1 | 1 | >3 | 3.01 | 5 | 1.51 | >=1.001 | 1.401 | >=5 | 2.01 | 1.51 | fold change (FC) [13]: 1; fold change (FC) [14]: 1; fold change (FC) [22]: 1
< 100 nM | C[C@@H](c1cc2c(c(C(F)(F)F)c1)CN(c1cccc(C3(Cc4nncn4C)COC3)c1)C2=O)N1CC[C@H](F)C1 | 1.401 | >1.61 | 1.51 | 1.51 | >4 | 1.51 | 3.01 | >4.01 | 1 | 1 | >3 | >4 | >=7.5 | 2.01 | >=1.001 | 1.401 | 2.01 | >3 | 1.51 | fold change (FC) [13]: 1; fold change (FC) [14]: 2.01; fold change (FC) [22]: 2.01
< 100 nM | Cn1cnnc1CC1(c2cccc(N3Cc4c(cc(CN5CC(F)C5)cc4C(F)(F)F)C3=O)c2)COC1 | 1.401 | >1.61 | 1.51 | 1 | >4 | 1 | 2.01 | >4.01 | <1 | 1 | >3 | >4 | 5 | 1.51 | >=1.001 | 1.201 | 2.01 | 2.01 | 1.31 | fold change (FC) [13]: 1; fold change (FC) [14]: 1; fold change (FC) [22]: <1
< 100 nM | C[C@H](Cc1nncn1C)c1cccc(N2Cc3c(cc(CN4CC(O)C4)cc3C(F)(F)F)C2=O)c1 | 1.201 | >1.61 | <=1.5 | – | 1.51 | – | <=2 | >4.01 | – | – | 2.01 | >4 | 2.51 | <=1.5 | >=1.001 | <=1.2 | 2.01 | <=2 | 1.31 | Kd [24]: < 100 nM
< 100 nM | Cn1cnnc1C(F)(F)C(C)(F)c1cccc(N2Cc3c(cc(CN4CC[C@@H](F)C4)cc3C(F)(F)F)C2=O)c1 (single isomer, unassigned) | 1.401 | >1.61 | 1.51 | – | >4 | – | <=2 | >4.01 | – | – | 2.01 | >4 | 2.51 | 1.51 | >=1.001 | 1.201 | >=5 | <=2 | 1.51 | Kd [24]: < 100 nM

The next lines start with the compound.

SMILES | IC50 [8] | fold change (FC) [1] | fold change (FC) [2] | fold change (FC) [3] | fold change (FC) [4] | fold change (FC) [5] | fold change (FC) [6] | fold change (FC) [7] | fold change (FC) [9] | fold change (FC) [10] | fold change (FC) [11] | fold change (FC) [12] | fold change (FC) [15] | fold change (FC) [16] | fold change (FC) [17] | fold change (FC) [18] | fold change (FC) [19] | fold change (FC) [20] | fold change (FC) [21] | fold change (FC) [23] | further results
Cn1cnnc1CC1(c2cccc(NC(=O)c3nc4c(C(F)(F)F)cccc4[nH]3)c2)COC1 | < 100 nM | >1.601 | 1.41 | 1.51 | – | >4 | – | <=2 | >4.01 | – | – | <=2 | 2.01 | 2.51 | 1.51 | >=1.001 | 1.401 | 2.01 | <=2 | 1.51 | Kd [24]: < 100 nM
Cn1cnnc1[C@@H]1C[C@@H]1c1cccc(N2Cc3c(cccc3C(F)(F)F)C2=O)c1 | – | 1.201 | 1.41 | <=1.5 | 1 | 2.01 | 1.51 | <=2 | <=2.5 | 1 | 1 | <=2 | 2.01 | <=1 | <=1.5 | >=1.001 | <=1.2 | 1.01 | <=2 | >=1.76 | fold change (FC) [13]: 1; fold change (FC) [14]: 2.01; fold change (FC) [22]: 1
C[C@H](Cc1nncn1C)c1cccc(N2Cc3c(cc(CN4CC(C)(O)C4)cc3C(F)(F)F)C2=O)c1 | < 100 nM | 1.401 | >1.61 | 1.51 | – | >4 | – | <=2 | >4.01 | – | – | 2.01 | >4 | 2.51 | 1.51 | >=1.001 | 1.401 | 2.01 | <=2 | 1.31 | Kd [24]: < 100 nM
